Assay results from PubChem BioAssay (NCI).
Values joined by “and” are separate entries in the source; they are usually repeats but may differ in a detail not shown here. Identical values can stand only once.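 Where inhibition never reached the appropriate level, the endpoint shown equals the highest concentration tested. Otherwise, values were interpolated linearly from a five-concentration, 48-hour dose response in 96-well plates. GI50 marks 50% less growth. The concentration for full growth arrest is given as TGI.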

Experiments:
Assay in all cases: inhibition of tumour cell growth, NCI panel, 48 h
[1] = tested on: KM12 colon
[2] = tested on: SW-620 colon
[3] = tested on: HCC-2998 colon
[4] = tested on: HCT-15 colon
[5] = tested on: SNB-75 CNS
[6] = tested on: NCI-H226 lung
[7] = tested on: MDA-MB-231 breast
[8] = tested on: 786-0 renal
[9] = tested on: SN12C renal
[10] = tested on: RPMI-8226 leukemia

SMILES | GI50 [1] | TGI [1] | GI50 [2] | TGI [2] | GI50 [3] [µM] | TGI [3] | GI50 [4] | TGI [4] | GI50 [5] | TGI [5] | GI50 [6] | TGI [6] | GI50 [7] [µM] | TGI [7] [µM] | GI50 [8] [µM] | TGI [8] [µM] | GI50 [9] [µM] | TGI [9] | TGI [10] | GI50 [10]
Cc1nc(-c2nc(-c3ccc(OC(F)(F)F)cc3)no2)nn1Cc1cccc(N2CCC(S(C)(=O)=O)CC2)c1 | > 52.6 µM | > 100 µM | > 46.9 µM | > 100 µM | > 40.6 | > 100 µM | > 21.7 µM | > 100 µM | 5.13 µM | 48.5 µM | 0.931 µM | 41.4 µM | 17.6 | > 100 | 18.4 | > 100 | > 31.1 | > 100 µM | > 100 µM | 
C=C1C(=O)O[C@H]2C[C@@H]1CC/C(C)=C/CC/C(C)=C/CC[C@@]2(C)O | > 100 µM | > 100 µM | 35 µM | > 100 µM | 24.1 | 74.9 µM | 26.4 µM | 71.6 µM | 70.8 µM | > 100 µM | 24.4 µM | 58.1 µM | 25.7 | 53.7 | 43.4 | > 100 | 24.9 | 65.7 µM | 43.5 µM | 20.4 µM
Cn1nc(C(F)(F)F)cc1-c1c[nH]c(OCc2ccc(Cl)cc2)c(-c2ccc(Cl)c(C(F)(F)F)c2)c1=O | 1.26 µM | 4.86 µM | 1.44 µM | 7.74 µM | 1.23 | 6.56 µM | 0.784 µM | 5.07 µM | 0.872 µM | 2.72 µM | 1.26 µM | 4.27 µM | 1.13 | 3.51 | 1.25 | 4.37 | 0.755 | 6.95 µM | 2.24 µM | 0.547 µM
O=[N+]([O-])c1ccc(C2=Nn3c(nnc3-c3ccc(Cl)cc3)SC2)o1 |  | 27.6 µM |  | 5.85 µM |  | 5.72 µM |  | 5.99 µM |  | 32 µM |  | 37.8 µM |  | 10.1 |  | 23 |  | 23.1 µM | 6.37 µM | 
C[C@@H]1CCC([C@@H](C)[C@H]2CC[C@H]3[C@@H]4CC[C@H]5C[C@@H](O)CC[C@]5(C)[C@H]4CC[C@]23C)=NC1 |  | > 59.7 µM |  | > 100 µM |  | 55.4 µM |  | 44.8 µM |  | > 71 µM |  | > 100 µM |  | > 84.6 |  | > 56.2 |  | > 100 µM | > 20.4 µM | 
O=C([O][Hg][CH2]C1OCCOC1[CH2][Hg][O]C(=O)c1ccccc1)c1ccccc1 (stereo unspecified) | 16.3 µM | 30.1 µM | 1.54 µM | 3 µM | 17.1 | 30.8 µM | 8.95 µM | 24.9 µM | 16 µM | 29.5 µM | 22.5 µM | 47.3 µM | 16.3 | 31.7 | 12.9 | 25.5 | 13.2 | 27.9 µM | > 22.6 µM | 7.5 µM
COC(=O)C1=COC(C)C2CN3CCc4c([nH]c5cc(OC)c(OC)cc45)C3CC12 (stereo unspecified) | > 100 µM and 37.2 µM | > 100 µM | > 100 µM and 39.1 µM | > 100 µM |  | > 100 µM |  | > 100 µM | 38.7 µM and > 100 µM | > 100 µM |  | > 100 µM |  | > 100 |  | > 100 |  | > 100 µM | > 100 µM | 
CC1(C)CC[C@]2(C(=O)O)CC[C@]3(C)C(=CC[C@@H]4[C@@]5(C)C[C@H](O)[C@H](O)[C@@](C)(C(=O)O)[C@@H]5CC[C@]43C)[C@@H]2C1 |  | > 100 µM |  | > 100 µM |  | > 100 µM |  | > 100 µM |  | > 100 µM |  | > 100 µM |  | > 100 |  | > 100 |  | > 100 µM | > 100 µM | 
CC(C)(C)[Si](C)(C)OC1[C@@H](O[Si](C)(C)C(C)(C)C)[C@@H](CNC(=O)NC(=O)CF)O[C@H]1n1cnc2c(NC(=O)Nc3ccccc3)ncnc21 (stereo partly specified) | 9.36 µM | 38.3 µM | 15.5 µM | > 50 µM | 9.23 | 31.3 µM | 11.2 µM | > 50 µM | 8.45 µM | > 50 µM | 5.5 µM | > 50 µM | 7.76 | 23.1 | 7.46 | 15.9 | 3 | 13.2 µM | > 50 µM | 14 µM
Cn1cc(C2=C(c3c4n(c5ccccc35)CCC(CN)C4)C(=O)NC2=O)c2ccccc21 (stereo unspecified) | 3.42 µM | 6.92 µM | 2.96 µM | 6.69 µM | 3.49 | 7.14 µM | 4.02 µM | 8.65 µM | 0.594 µM | 4.05 µM | 3.34 µM | 11.1 µM | 2.53 | 6.05 | 4.25 | 8.38 | 2.72 | 6.56 µM | 9.61 µM | 3.93 µM
O=C(/C(=C/c1ccc([N+](=O)[O-])cc1)SCc1ccc(Cl)cc1)c1ccc(F)cc1 | 2.71 µM | 8.08 µM | 1.71 µM | 4.91 µM | 2.39 | 5.41 µM | 1.9 µM | 4.26 µM | 16.1 µM | 65.6 µM | 9.67 µM | > 41.6 µM | 2.14 | 5.98 | 2.66 | 7.9 | 2.4 | 7.43 µM | 4 µM | 0.81 µM
O=C1NC2C(=CC(O)C(O)C2O)c2cc3c(cc21)OCO3 (stereo unspecified) | 0.336 µM and 0.129 µM | 1.75 µM and 3.53 µM | 0.412 µM and 0.199 µM | 4.07 µM and 19.9 µM | 0.179 | 1.38 µM and 1.67 µM | 0.406 µM and 0.216 µM | 9.97 µM and 6.41 µM | 0.165 µM and 0.291 µM | 0.953 µM and 4.31 µM and 4 µM | 0.598 µM and 0.388 µM | 4.46 µM and 2.34 µM |  | 2.39 | 0.544 | 4.93 | 0.156 | 2.59 µM and 2.29 µM | 0.908 µM and 1.67 µM | 0.5 µM and 0.147 µM
COc1ccc(Cn2cc3c(c2-c2ccccc2)CCc2cnoc2-3)cc1OC | 0.487 µM | > 100 µM | 0.455 µM | > 100 µM | 2.19 | > 100 µM | 0.522 µM | > 100 µM | 0.669 µM | 5.26 µM | 5.75 µM | > 100 µM | 2.13 | > 100 | 2.24 | > 100 | 5.16 | > 100 µM | > 100 µM | 3.16 µM
